Test results published in patent US20250084035A1, “POLYMORPHIC FORM OF MEISOINDIGO AND MODIFIED FORMULATION OF MEISOINDIGO” (STATIA BIOPHARMA INC., priority 2018, published 2025).

Legend:
[1] = test system: ulcerative colitis; assay: Clinical trial in ulcerative colitis; assay type: in vivo, humans; details: recent clinical trial
[2] = Solubility in solvents (descriptive); assay type: physicochemical
[3] = test system: leukemia cells; details: cited from earlier work
[4] = Particle size and distribution, Malvern Mastersizer 2000; assay type: physicochemical; details: for Particle size d10 / Particle size d50 / Particle size d90: Crystal Form I, Malvern Mastersizer 2000; for Particle Size Distribution Ratio: calculated as (d90-d10)/d50
Description: Crystal Form I was analyzed for its particle size and distribution. Five batches were tested using a Malvern Mastersizer 2000 (MIIA14730, Malvern, UK).

SMILES	Efficacy against ulcerative colitis [1]	Side effects [1]	Solubility ([2]; in acetone)	Solubility ([2]; in chloroform)	Solubility ([2]; in ethanol)	Solubility ([2]; in water)	Cell cycle effect ([3]; leukemia cells)	Expression of oncogene c-myb ([3]; leukemia cells)	Cell growth ([3]; low concentrations, without a decrease in cell viability)	Particle size d10 [4] [μm]	Particle size d50 [4] [μm]	Particle size d90 [4] [μm]	Particle Size Distribution Ratio [4]
CN1C(=O)/C(=C2/C(=O)Nc3ccccc32)c2ccccc21 [N-methylisoindigo]	very effective	no significant side effects	sparingly soluble	sparingly soluble	sparingly soluble	slightly soluble	arrests leukemia cells at G phase	inhibits	completely inhibited	–	–	–	–
CN1C(=O)/C(=C2/C(=O)Nc3ccccc32)c2ccccc21 [NAT-0601, N-methylisoindigo]	–	–	–	–	–	–	–	–	–	2.506	12.464	25.635	1.86
CN1C(=O)/C(=C2/C(=O)Nc3ccccc32)c2ccccc21 [NAT-0801, N-methylisoindigo]	–	–	–	–	–	–	–	–	–	3.249	12.268	23.99	1.69
CN1C(=O)/C(=C2/C(=O)Nc3ccccc32)c2ccccc21 [NAT-1201, N-methylisoindigo]	–	–	–	–	–	–	–	–	–	3.599	13.301	26.897	1.75
CN1C(=O)/C(=C2/C(=O)Nc3ccccc32)c2ccccc21 [NAT-1202, N-methylisoindigo]	–	–	–	–	–	–	–	–	–	5.035	15.603	30.339	1.62
CN1C(=O)/C(=C2/C(=O)Nc3ccccc32)c2ccccc21 [NAT-1203, N-methylisoindigo]	–	–	–	–	–	–	–	–	–	5.295	15.674	30.015	1.58
